Data from patent US20240000806A1, “METHODS AND MATERIALS FOR INHIBITING CB1 ACTIVITY” (University of Pittsburgh - Of the Commonwealth System of …, priority 2020, published 2024).

These compounds were tested against CB1 (CNR1) (Homo sapiens, UniProt P21554) (assay: cAMP CNR1 Hunter cell line antagonist assay (CB1 assay)). Details: antagonist mode, cAMP CNR1 Hunter cells, EC80 agonist; read-out: CB1 assay, Efficacy (IC50).
Format: cell-based
Summary of the method: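 Antagonist mode in CNR1 Hunter cells: compound preincubated 30 min at 37 °C, then EC80 agonist for 30 min at 37 °C. cAMP measured by enzyme-fragment complementation chemiluminescence after lysis (1 h) and detection (3 h, room temperature); IC50 fitted from the dose response.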

Sequence of CB1 (CNR1) (P21554 whole entry): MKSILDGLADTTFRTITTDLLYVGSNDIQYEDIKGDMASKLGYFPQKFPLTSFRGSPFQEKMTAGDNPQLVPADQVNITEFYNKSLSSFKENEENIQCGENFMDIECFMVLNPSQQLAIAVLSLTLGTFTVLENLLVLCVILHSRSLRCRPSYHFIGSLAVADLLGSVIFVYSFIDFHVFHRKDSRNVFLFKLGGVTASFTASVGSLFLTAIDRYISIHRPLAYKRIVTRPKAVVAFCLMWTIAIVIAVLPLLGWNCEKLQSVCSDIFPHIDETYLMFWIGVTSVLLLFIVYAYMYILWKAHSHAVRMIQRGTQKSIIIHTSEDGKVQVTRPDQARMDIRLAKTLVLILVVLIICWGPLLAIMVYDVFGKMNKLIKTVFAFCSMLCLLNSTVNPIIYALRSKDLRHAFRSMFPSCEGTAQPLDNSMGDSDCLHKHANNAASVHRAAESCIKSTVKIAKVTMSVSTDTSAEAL

Compound	IC50 [µM]
CCC1Oc2cc(S(=O)(=O)Nc3ccc(Cl)cc3)c(Cl)cc2NC1=O (centres unmarked) [BC19739]	1 to 25
CCC1Oc2cc(S(=O)(=O)Nc3ccc(OC)c(Cl)c3)c(Cl)cc2NC1=O (centres unmarked) [BC19743]	≥ 25
CCC1Oc2cc(S(=O)(=O)Nc3ccc(F)cc3F)c(Cl)cc2NC1=O (centres unmarked) [BC19747]	1 to 25
CCc1cccc(NS(=O)(=O)c2cc(Cl)cc3c2OC(CC)C(=O)N3)c1 (centres unmarked) [BC19750]	≥ 25
CCC1Oc2c(cc(Cl)cc2S(=O)(=O)Nc2cccc(Cl)c2)NC1=O (centres unmarked) [BC19752]	1 to 25
CCC1Oc2c(cc(Cl)cc2S(=O)(=O)Nc2ccc(C)cc2)NC1=O (centres unmarked) [BC19754]	1 to 25
CCC1Oc2c(cc(Cl)cc2S(=O)(=O)Nc2ccc(F)cc2Cl)NC1=O (centres unmarked) [BC19756]	1 to 25
CC(C)CC1Oc2c(cc(Br)cc2S(=O)(=O)Nc2ccc(OC(F)(F)F)cc2)NC1=O (centres unmarked) [BC19757]	≥ 25
CC(C)CC1Oc2cc(S(=O)(=O)Nc3ccc(F)c(F)c3)c(Br)cc2NC1=O (centres unmarked) [BC19760]	1 to 25
CC(C)CC1Oc2c(cc(Br)cc2S(=O)(=O)Nc2ccccc2)NC1=O (centres unmarked) [BC19761]	1 to 25
CC(C)CC1Oc2cc(S(=O)(=O)Nc3ccccc3)c(Br)cc2NC1=O (centres unmarked) [BC19762]	≥ 25
CC(C)CC1Oc2cc(S(=O)(=O)Nc3ccc(C(C)C)cc3)c(Br)cc2NC1=O (centres unmarked) [BC19766]	≥ 25
Cc1ccc(NS(=O)(=O)c2cc3c(cc2Br)NC(=O)C(CC(C)C)O3)cc1Cl (centres unmarked) [BC19768]	1 to 25
CC(C)CC1Oc2c(cc(Br)cc2S(=O)(=O)Nc2ccc(F)cc2F)NC1=O (centres unmarked) [BC19769]	1 to 25
CC(C)CC1Oc2cc(S(=O)(=O)Nc3ccc(F)cc3F)c(Br)cc2NC1=O (centres unmarked) [BC19770]	≥ 25
CCc1cccc(NS(=O)(=O)c2cc(Br)cc3c2OC(CC(C)C)C(=O)N3)c1 (centres unmarked) [BC19771]	1 to 25

Compound	IC50 [µM]
CCc1cccc(NS(=O)(=O)c2cc3c(cc2Br)NC(=O)C(CC(C)C)O3)c1 (centres unmarked) [BC19772]	1 to 25
CC(C)CC1Oc2cc(S(=O)(=O)Nc3cccc(F)c3)c(Br)cc2NC1=O (centres unmarked) [BC19774]	≥ 25
CC(C)CC1Oc2c(cc(Br)cc2S(=O)(=O)Nc2cccc(Cl)c2)NC1=O (centres unmarked) [BC19775]	≥ 25
CC(C)CC1Oc2cc(S(=O)(=O)Nc3cccc(Cl)c3)c(Br)cc2NC1=O (centres unmarked) [BC19776]	≥ 25
CC(C)CC1Oc2c(cc(Br)cc2S(=O)(=O)Nc2ccc(F)cc2Cl)NC1=O (centres unmarked) [BC19777]	≥ 25
COc1ccc(NS(=O)(=O)c2cc3c(cc2Br)NC(=O)C(CC(C)C)O3)cc1Cl (centres unmarked) [BC19780]	1 to 25
CC(C)CC1Oc2cc(S(=O)(=O)Nc3ccc(F)cc3)c(Br)cc2NC1=O (centres unmarked) [BC19782]	≥ 25
CC1Oc2cc(S(=O)(=O)Nc3ccc(OC(F)(F)F)cc3)c(Br)cc2N(C)C1=O (centres unmarked) [BC19784]	≥ 25
CC1Oc2c(cc(Br)cc2S(=O)(=O)Nc2ccc(Cl)cc2)N(C)C1=O (centres unmarked) [BC19791]	≥ 25
CC1Oc2c(cc(Br)cc2S(=O)(=O)Nc2ccc(C(C)C)cc2)N(C)C1=O (centres unmarked) [BC19793]	≥ 25
CC1Oc2cc(S(=O)(=O)Nc3ccc(C(C)C)cc3)c(Br)cc2N(C)C1=O (centres unmarked) [BC19794]	≥ 25
Cc1ccc(NS(=O)(=O)c2cc(Br)cc3c2OC(C)C(=O)N3C)cc1Cl (centres unmarked) [BC19796]	1 to 25
CC1Oc2c(cc(Br)cc2S(=O)(=O)Nc2ccc(F)cc2F)N(C)C1=O (centres unmarked) [BC19798]	≥ 25
CCc1cccc(NS(=O)(=O)c2cc3c(cc2Br)N(C)C(=O)C(C)O3)c1 (centres unmarked) [BC19901]	≥ 25
CC1Oc2c(cc(Br)cc2S(=O)(=O)Nc2cccc(F)c2)N(C)C1=O (centres unmarked) [BC19902]	≥ 25
CC1Oc2cc(S(=O)(=O)Nc3cccc(F)c3)c(Br)cc2N(C)C1=O (centres unmarked) [BC19903]	1 to 25

Continued, values first:

IC50 [µM]	Compound
1 to 25	CCC1Oc2c(cc(Cl)cc2S(=O)(=O)Nc2ccc(Cl)cc2)NC1=O (centres unmarked) [BC19740]
1 to 25	CCc1ccc(NS(=O)(=O)c2cc3c(cc2Cl)NC(=O)C(CC)O3)cc1 (centres unmarked) [BC19741]
1 to 25	CCc1ccc(NS(=O)(=O)c2cc(Cl)cc3c2OC(CC)C(=O)N3)cc1 (centres unmarked) [BC19742]
≥ 25	CCC1Oc2c(cc(Cl)cc2S(=O)(=O)Nc2ccc(OC)c(Cl)c2)NC1=O (centres unmarked) [BC19744]
1 to 25	CCC1Oc2cc(S(=O)(=O)Nc3ccc(C)c(Cl)c3)c(Cl)cc2NC1=O (centres unmarked) [BC19745]
1 to 25	CCC1Oc2c(cc(Cl)cc2S(=O)(=O)Nc2ccc(C)c(Cl)c2)NC1=O (centres unmarked) [BC19746]
≥ 25	CCC1Oc2c(cc(Cl)cc2S(=O)(=O)Nc2ccc(F)cc2F)NC1=O (centres unmarked) [BC19748]
1 to 25	CCc1cccc(NS(=O)(=O)c2cc3c(cc2Cl)NC(=O)C(CC)O3)c1 (centres unmarked) [BC19749]
< 1	CCC1Oc2cc(S(=O)(=O)Nc3cccc(Cl)c3)c(Cl)cc2NC1=O (centres unmarked) [BC19751]
1 to 25	CCC1Oc2cc(S(=O)(=O)Nc3ccc(C)cc3)c(Cl)cc2NC1=O (centres unmarked) [BC19753]
1 to 25	CCC1Oc2cc(S(=O)(=O)Nc3ccc(F)cc3Cl)c(Cl)cc2NC1=O (centres unmarked) [BC19755]
≥ 25	CC(C)CC1Oc2cc(S(=O)(=O)Nc3ccc(OC(F)(F)F)cc3)c(Br)cc2NC1=O (centres unmarked) [BC19758]
1 to 25	CC(C)CC1Oc2c(cc(Br)cc2S(=O)(=O)Nc2ccc(F)c(F)c2)NC1=O (centres unmarked) [BC19759]
1 to 25	CCc1ccc(NS(=O)(=O)c2cc(Br)cc3c2OC(CC(C)C)C(=O)N3)cc1 (centres unmarked) [BC19763]
1 to 25	CCc1ccc(NS(=O)(=O)c2cc3c(cc2Br)NC(=O)C(CC(C)C)O3)cc1 (centres unmarked) [BC19764]
≥ 25	CC(C)CC1Oc2c(cc(Br)cc2S(=O)(=O)Nc2ccc(C(C)C)cc2)NC1=O (centres unmarked) [BC19765]
1 to 25	Cc1ccc(NS(=O)(=O)c2cc(Br)cc3c2OC(CC(C)C)C(=O)N3)cc1Cl (centres unmarked) [BC19767]

IC50 [µM]	Compound
1 to 25	CC(C)CC1Oc2c(cc(Br)cc2S(=O)(=O)Nc2cccc(F)c2)NC1=O (centres unmarked) [BC19773]
≥ 25	CC(C)CC1Oc2cc(S(=O)(=O)Nc3ccc(F)cc3Cl)c(Br)cc2NC1=O (centres unmarked) [BC19778]
≥ 25	COc1ccc(NS(=O)(=O)c2cc(Br)cc3c2OC(CC(C)C)C(=O)N3)cc1Cl (centres unmarked) [BC19779]
1 to 25	CC(C)CC1Oc2c(cc(Br)cc2S(=O)(=O)Nc2ccc(F)cc2)NC1=O (centres unmarked) [BC19781]
1 to 25	CC1Oc2c(cc(Br)cc2S(=O)(=O)Nc2ccc(OC(F)(F)F)cc2)N(C)C1=O (centres unmarked) [BC19783]
≥ 25	Cc1ccc(NS(=O)(=O)c2cc(Br)cc3c2OC(C)C(=O)N3C)cc1F (centres unmarked) [BC19785]
≥ 25	Cc1ccc(NS(=O)(=O)c2cc3c(cc2Br)N(C)C(=O)C(C)O3)cc1F (centres unmarked) [BC19786]
≥ 25	CC1Oc2c(cc(Br)cc2S(=O)(=O)Nc2ccc(F)c(F)c2)N(C)C1=O (centres unmarked) [BC19787]
1 to 25	CC1Oc2cc(S(=O)(=O)Nc3ccc(F)c(F)c3)c(Br)cc2N(C)C1=O (centres unmarked) [BC19788]
≥ 25	CC1Oc2c(cc(Br)cc2S(=O)(=O)Nc2ccccc2)N(C)C1=O (centres unmarked) [BC19789]
1 to 25	CC1Oc2cc(S(=O)(=O)Nc3ccccc3)c(Br)cc2N(C)C1=O (centres unmarked) [BC19790]
≥ 25	CC1Oc2cc(S(=O)(=O)Nc3ccc(Cl)cc3)c(Br)cc2N(C)C1=O (centres unmarked) [BC19792]
≥ 25	COc1ccc(NS(=O)(=O)c2cc3c(cc2Br)N(C)C(=O)C(C)O3)cc1 (centres unmarked) [BC19795]
≥ 25	Cc1ccc(NS(=O)(=O)c2cc3c(cc2Br)N(C)C(=O)C(C)O3)cc1Cl (centres unmarked) [BC19797]
≥ 25	CC1Oc2cc(S(=O)(=O)Nc3ccc(F)cc3F)c(Br)cc2N(C)C1=O (centres unmarked) [BC19799]
≥ 25	CCc1cccc(NS(=O)(=O)c2cc(Br)cc3c2OC(C)C(=O)N3C)c1 (centres unmarked) [BC19900]
